Data taken from US8710097B2, “Flavonoid dimers and methods of making and using such” (The Hong Kong Polytechnic University, priority 2006, dated 2014).

What was measured:
MDA435/LCC6 MDR cells = experiment: cells
[1] = test system: pentamidine-resistant L. enriettii LePentR50 promastigotes; experiment: microbe, parasite or virus in culture
[2] = test system: wild type L. donovani LdAG83 promastigotes; experiment: Leishmania cell viability (MTS) assay; type: cell-based, Leishmania donovani
[3] = test system: SSG-resistant L. donovani Ld39 promastigotes; experiment: microbe, parasite or virus in culture; type: cell-based, Leishmania donovani
[4] = MDA435/LCC6 MDR, 5 μM dimer, FIG. 5

`O=c1cc(-c2ccc(OCCOCCOCCOCCOc3ccc(-c4cc(=O)c5c(O)cc(O)cc5o4)cc3)cc2)oc2cc(O)cc(O)c12` [Compound 9d, 1,13-Bis[4′-((5,7-dihydroxy)-4H-chromen-4-on-2-yl)phenyl]-1,4,7,10,13-pentaoxamidecane] was tested, and the “RF, daunorubicin (IC50 without modulator / IC50 with modulator)” value (MDA435/LCC6 MDR cells; LCC6 MDR, daunorubicin + 5 μM 9d) was 7.6, the “RF, doxorubicin (IC50 without modulator / IC50 with modulator)” value (MDA435/LCC6 MDR cells; LCC6 MDR, doxorubicin + 5 μM 9d or VP) was 9 and the “RF, mitoxantrone (IC50 without modulator / IC50 with modulator)” value (MDA435/LCC6 MDR cells; LCC6 MDR, mitoxantrone + 5 μM 9d) was 2.2. For the same compound, the “RF, taxol (IC50 without modulator / IC50 with modulator)” value (MDA435/LCC6 MDR cells; LCC6 MDR, taxol + 5 μM 9d or VP) was 22, the “RF, vinblastine (IC50 without modulator / IC50 with modulator)” value (MDA435/LCC6 MDR cells; LCC6 MDR, vinblastine + 5 μM 9d or VP) was 10 and the “RF, vincristine (IC50 without modulator / IC50 with modulator)” value (MDA435/LCC6 MDR cells; LCC6 MDR, vincristine + 5 μM 9d) was 41. For the same compound, the “reversal of resistance to vinblastine, taxol, doxorubicin, vincristine, daunorubicin” value (MDA435/LCC6 MDR cells; MDA435/LCC6 MDR, 5 μM 9d, FIG. 6A to 6E) was “to a level close to the parental”, the “effect on mitoxantrone resistance” value (MDA435/LCC6 MDR cells; MDA435/LCC6 MDR, 5 μM 9d, FIG. 6F) was “No effect” and the “IC60 of doxorubicin with modulator” value (MDA435/LCC6 MDR cells; [4]) was 0.73 µM. For the same compound, the “reduction of IC60 of doxorubicin, RF” value (MDA435/LCC6 MDR cells; [4]) was “about 6 RF”, the “concentration reaching the plateau of taxol reversing activity” value (MDA435/LCC6 MDR cells; MDA435/LCC6 MDR, FIG. 3B) was 5 µM and the “cytotoxicity under accumulation conditions” value ([1]; LePentR50, 60 μM 9d, 3 hours, data not shown) was “did not result in any cytotoxicity”. The pentamidine sensitization ([1]; LePentR50, FIG. 18A) was ~3.7 fold, the “toxicity of modulator alone” value ([1]; LePentR50, up to 6 μM) was “No toxicity” and the EC50 ([1]; read-out: EC50 (concentration resulting in 50% survival of LePentR50 at 60 μg/ml pentamidine), co-treatment with 60 μg/ml pentamidine, FIG. 15) was ~0.94 µM. The IC50 ([1]; read-out: IC50(μM) of synthetic flavonoid, LePentR50, cytotoxicity of compound alone, 72 hrs) was > 200 µM, the “modulating effect on SSG sensitivity” value ([2]; LdAG83, up to 6 μM, FIG. 17C) was “did not have any modulating effect” and the “modulatory effect on SSG sensitivity” value ([2]; SSG-sensitive wild type LdAG83, FIG. 14D) was “no modulatory effect”. For the same compound, the IC50 ([2]; cytotoxicity of compound alone, 72 hrs, read-out: IC50(μM) of synthetic flavonoid, LdAG83) was 7 ± 0.4 µM, the “reduction of SSG resistance level” value ([3]; Ld39, 4 μM, FIGS. 17A and 17B) was “back to the level of the sensitive strain” and the SSG sensitization ([3]; Ld39, FIG. 18B) was 3.9 fold. For the same compound, the IC50 ([3]; cytotoxicity of compound alone, 72 hrs, read-out: IC50(μM) of synthetic flavonoid, Ld39) was 10 ± 0.9 µM.
